Experimental data as given in PMC4220016, “The binding characteristics and orientation of a novel radioligand with distinct properties at 5-HT3A and 5-HT3AB receptors” (Neuropharmacology, 2014).

What was measured:
[1] = target: T1, 5-HT3A receptors (Homo sapiens, UniProt P46098); test: Kinetic measurements (association, dissociation) at 5-HT3A receptors; assay type: binding; parameters: expressed in transfected cells; host or cells: HEK 293; conditions: calculated from kinetic rates, Equ (4), read-out: Kd(nM) (kon/koff)
T1 sequence (P46098 24-478): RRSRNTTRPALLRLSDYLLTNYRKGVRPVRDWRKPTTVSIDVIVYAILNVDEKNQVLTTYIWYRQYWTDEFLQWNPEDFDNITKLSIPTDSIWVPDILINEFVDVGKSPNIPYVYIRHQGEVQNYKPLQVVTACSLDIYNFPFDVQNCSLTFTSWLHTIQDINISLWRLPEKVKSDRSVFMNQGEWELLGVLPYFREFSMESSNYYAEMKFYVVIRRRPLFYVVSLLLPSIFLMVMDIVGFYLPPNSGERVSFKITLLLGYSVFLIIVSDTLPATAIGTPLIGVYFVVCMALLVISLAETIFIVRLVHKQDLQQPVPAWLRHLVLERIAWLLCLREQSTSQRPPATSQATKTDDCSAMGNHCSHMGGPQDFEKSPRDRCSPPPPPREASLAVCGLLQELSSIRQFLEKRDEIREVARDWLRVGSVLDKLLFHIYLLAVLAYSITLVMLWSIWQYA

[2] = target: T2, 5-HT3A receptor T179C (Homo sapiens, UniProt P46098, T174C); test: Saturation binding of [^3H]VUF10166 at 5-HT3A receptor mutant; conditions: Loop B, read-out: Kd (nM) Mean ± SEM
T2 construct: expressed in transfected cells; host or cells: HEK 293
T2 sequence (P46098 24-478 T174C): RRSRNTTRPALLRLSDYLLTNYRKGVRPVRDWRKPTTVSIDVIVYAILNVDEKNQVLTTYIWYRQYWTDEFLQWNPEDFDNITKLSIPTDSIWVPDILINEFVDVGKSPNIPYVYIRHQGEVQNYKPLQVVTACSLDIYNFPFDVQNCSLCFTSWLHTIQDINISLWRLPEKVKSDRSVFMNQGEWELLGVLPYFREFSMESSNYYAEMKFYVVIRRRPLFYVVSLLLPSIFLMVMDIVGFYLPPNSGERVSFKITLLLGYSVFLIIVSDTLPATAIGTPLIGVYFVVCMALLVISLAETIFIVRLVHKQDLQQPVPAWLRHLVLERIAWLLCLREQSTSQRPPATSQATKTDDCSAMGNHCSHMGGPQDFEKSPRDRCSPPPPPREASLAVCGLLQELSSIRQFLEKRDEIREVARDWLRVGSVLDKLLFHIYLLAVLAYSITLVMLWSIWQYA
Protocol: (§1) Mutagenesis was performed using the QuikChange method (Agilent Technologies Inc., California, USA) on human 5-HT3A cDNA (accession number: P46098) cloned into pcDNA3.1 (Invitrogen, Paisley, UK). Cysteine residues were substituted for amino acids throughout each of the binding loops A–E (Fig. 1). To facilitate comparisons with previous work, we use the numbering of the equivalent residues in the mouse 5-HT3A subunit; for human numbering 5 should be subtracted from each residue number.
(§2) All data were analysed using GraphPad Prism 4.03.

[3] = target: T3, 5-HT3A receptor W90C (Homo sapiens, UniProt P46098, W85C); test: as above; conditions: Loop D, read-out: Kd (nM) Mean ± SEM
T3 construct: expressed in transfected cells; host or cells: HEK 293
T3 sequence (P46098 24-478 W85C): as the sequence (P46098 24-478 T174C) above, with W62C, C151T counted along it
Protocol: as §1, §2

[4] = target: T4, 5-HT3A receptor H185C (Homo sapiens, UniProt P46098, H180C); test: as above; conditions: H185C, Loop B; read-out: Kd (nM) Mean ± SEM
T4 construct: expressed in transfected cells; host or cells: HEK 293
T4 sequence (P46098 24-478 H180C): as the sequence (P46098 24-478 T174C) above, with C151T, H157C counted along it
Protocol: as §1, §2

[5] = target: T5, 5-HT3A receptor E129C (Homo sapiens, UniProt P46098, E124C); test: as above; conditions: Loop A, read-out: Kd (nM) Mean ± SEM
T5 construct: expressed in transfected cells; host or cells: HEK 293
T5 sequence (P46098 24-478 E124C): as the sequence (P46098 24-478 T174C) above, with E101C, C151T counted along it
Protocol: as §1, §2

[6] = target: T6, 5-HT3A receptor T181C (Homo sapiens, UniProt P46098, T176C/T181C); test: as above; conditions: Loop B, read-out: Kd (nM) Mean ± SEM
T6 construct: expressed in transfected cells; host or cells: HEK 293
T6 sequence (P46098 24-478 T176C/T181C): as the sequence (P46098 24-478 T174C) above, with C151T, T153C, T158C counted along it
Protocol: as §1, §2

[7] = target: T7, 5-HT3A receptor Y141C (Homo sapiens, UniProt P46098, Y136C); test: as above; conditions: Loop E, read-out: Kd (nM) Mean ± SEM
T7 construct: expressed in transfected cells; host or cells: HEK 293
T7 sequence (P46098 24-478 Y136C): as the sequence (P46098 24-478 T174C) above, with Y113C, C151T counted along it
Protocol: as §1, §2

[8] = target: T8, 5-HT3A receptor K112C (Homo sapiens, UniProt P46098, K107C); test: as above; conditions: K112C; read-out: Kd (nM) Mean ± SEM
T8 construct: expressed in transfected cells; host or cells: HEK 293
T8 sequence (P46098 24-478 K107C): as the sequence (P46098 24-478 T174C) above, with K84C, C151T counted along it
Protocol: as §1, §2

[9] = target: T9, 5-HT3A receptor Q151C (Homo sapiens, UniProt P46098, Q146C); test: as above; conditions: Q151C, Loop E; read-out: Kd (nM) Mean ± SEM
T9 construct: expressed in transfected cells; host or cells: HEK 293
T9 sequence (P46098 24-478 Q146C): as the sequence (P46098 24-478 T174C) above, with Q123C, C151T counted along it
Protocol: as §1, §2

[10] = target: T10, 5-HT3A receptor Y143C (Homo sapiens, UniProt P46098, Y138C); test: as above; conditions: Loop E, read-out: Kd (nM) Mean ± SEM
T10 construct: expressed in transfected cells; host or cells: HEK 293
T10 sequence (P46098 24-478 Y138C): as the sequence (P46098 24-478 T174C) above, with Y115C, C151T counted along it
Protocol: as §1, §2

[11] = target: T11, 5-HT3A receptor I71C (Homo sapiens, UniProt P46098, I66C); test: as above; conditions: I71C; read-out: Kd (nM) Mean ± SEM
T11 construct: expressed in transfected cells; host or cells: HEK 293
T11 sequence (P46098 24-478 I66C): as the sequence (P46098 24-478 T174C) above, with I43C, C151T counted along it
Protocol: as §1, §2

[12] = target: T12, 5-HT3A receptor S114C (Homo sapiens, UniProt P46098, S109C); test: as above; conditions: S114C; read-out: Kd (nM) Mean ± SEM
T12 construct: expressed in transfected cells; host or cells: HEK 293
T12 sequence (P46098 24-478 S109C): as the sequence (P46098 24-478 T174C) above, with S86C, C151T counted along it
Protocol: as §1, §2

[13] = target: T13, 5-HT3A receptor N128C (Homo sapiens, UniProt P46098, N123C); test: as above; conditions: N128C, Loop A; read-out: Kd (nM) Mean ± SEM
T13 construct: expressed in transfected cells; host or cells: HEK 293
T13 sequence (P46098 24-478 N123C): as the sequence (P46098 24-478 T174C) above, with N100C, C151T counted along it
Protocol: as §1, §2

[14] = target: T14, 5-HT3A receptor D189C (Homo sapiens, UniProt P46098, D184C); test: as above; conditions: Loop B, read-out: Kd (nM) Mean ± SEM
T14 construct: expressed in transfected cells; host or cells: HEK 293
T14 sequence (P46098 24-478 D184C): as the sequence (P46098 24-478 T174C) above, with C151T, D161C counted along it
Protocol: as §1, §2

[15] = target: T15, 5-HT3A receptor W183C (Homo sapiens, UniProt P46098, W178C); test: as above; conditions: Loop B, read-out: Kd (nM) Mean ± SEM
T15 construct: expressed in transfected cells; host or cells: HEK 293
T15 sequence (P46098 24-478 W178C): as the sequence (P46098 24-478 T174C) above, with C151T, W155C counted along it
Protocol: as §1, §2

[16] = target: T16, 5-HT3A receptor R92C (Homo sapiens, UniProt P46098, R87C); test: as above; conditions: R92C, Loop D; read-out: Kd (nM) Mean ± SEM
T16 construct: expressed in transfected cells; host or cells: HEK 293
T16 sequence (P46098 24-478 R87C): as the sequence (P46098 24-478 T174C) above, with R64C, C151T counted along it
Protocol: as §1, §2

[17] = target: T17, 5-HT3A receptor N232C (Homo sapiens, UniProt P46098, N227C); test: as above; conditions: N232C, Loop C; read-out: Kd (nM) Mean ± SEM
T17 construct: expressed in transfected cells; host or cells: HEK 293
T17 sequence (P46098 24-478 N227C): as the sequence (P46098 24-478 T174C) above, with C151T, N204C counted along it
Protocol: as §1, §2

[18] = target: T18, 5-HT3A receptor R58C (Homo sapiens, UniProt P46098, R53C); test: as above; conditions: read-out: Kd (nM) Mean ± SEM
T18 construct: expressed in transfected cells; host or cells: HEK 293
T18 sequence (P46098 24-478 R53C): as the sequence (P46098 24-478 T174C) above, with R30C, C151T counted along it
Protocol: as §1, §2

[19] = target: T19, 5-HT3A receptor I139C (Homo sapiens, UniProt P46098, I134C); test: as above; conditions: I139C, Loop E; read-out: Kd (nM) Mean ± SEM
T19 construct: expressed in transfected cells; host or cells: HEK 293
T19 sequence (P46098 24-478 I134C): as the sequence (P46098 24-478 T174C) above, with I111C, C151T counted along it
Protocol: as §1, §2

[20] = target: T20, 5-HT3A receptor Y234C (Homo sapiens, UniProt P46098, Y229C); test: as above; conditions: Loop C, read-out: Kd (nM) Mean ± SEM
T20 construct: expressed in transfected cells; host or cells: HEK 293
T20 sequence (P46098 24-478 Y229C): as the sequence (P46098 24-478 T174C) above, with C151T, Y206C counted along it
Protocol: as §1, §2

[21] = target: T21, 5-HT3A receptor E236C (Homo sapiens, UniProt P46098, E231C); test: as above; conditions: Loop C, read-out: Kd (nM) Mean ± SEM
T21 construct: expressed in transfected cells; host or cells: HEK 293
T21 sequence (P46098 24-478 E231C): as the sequence (P46098 24-478 T174C) above, with C151T, E208C counted along it
Protocol: as §1, §2

[22] = target: T22, 5-HT3A receptor R145C (Homo sapiens, UniProt P46098, R140C); test: as above; conditions: R145C, Loop E; read-out: Kd (nM) Mean ± SEM
T22 construct: expressed in transfected cells; host or cells: HEK 293
T22 sequence (P46098 24-478 R140C): as the sequence (P46098 24-478 T174C) above, with R117C, C151T counted along it
Protocol: as §1, §2

CN1CCN(c2nc3ccccc3nc2Cl)CC1 [[^3H]VUF10166] [2-chloro-3-(4-[^3H]methylpiperazin-1-yl)quinoxaline]
Kd [1]: 0.16 nM
Kd [2]: > 10 nM
Kd [3]: > 10 nM
Kd [4]: 0.96 ± 0.39 nM
Kd [5]: > 10 nM
Kd [6]: > 10 nM
Kd [7]: > 10 nM
Kd [8]: 0.13 ± 0.03 nM
Kd [9]: 1.82 ± 0.19 nM
Kd [10]: > 10 nM
Kd [11]: 0.23 ± 0.05 nM
Kd [12]: 0.21 ± 0.09 nM
Kd [13]: 0.7 ± 0.1 nM
Kd [14]: > 10 nM
Kd [15]: > 10 nM
Kd [16]: 0.88 ± 0.19 nM
Kd [17]: 1.9 ± 0.36 nM
Kd [18]: > 10 nM
Kd [19]: 1.55 ± 0.15 nM
Kd [20]: > 10 nM
Kd [21]: > 10 nM
Kd [22]: 0.96 ± 0.35 nM
